Measured values: the NIST ThermoML archive (doi:10.1021/je800579j)

Experiment: xn = mol fraction of the nth substance listed
Conditions: Liquid, Pycnometric method

Cc1ccc(C)cc1 [1,4-dimethylbenzene] + C1COCCO1
mass density [kg/m3]
Conditions | 288.15 K | 293.15 K | 298.15 K | 303.15 K | 308.15 K | 313.15 K | 318.15 K
x2 = 0 | 865.52 | 861.17 | 856.82 | 852.47 | 848.12 | 843.77 | 839.42
x2 = 0.0716 | 874.09 | 869.64 | 865.2 | 860.76 | 856.32 | 851.88 | 847.44
x2 = 0.1445 | 883.22 | 878.69 | 874.16 | 869.64 | 865.12 | 860.6 | 856.08
x2 = 0.2132 | 892.23 | 887.63 | 883.03 | 878.43 | 873.83 | 869.23 | 864.63
x2 = 0.2871 | 902.41 | 897.73 | 893.05 | 888.37 | 883.69 | 879.02 | 874.35
x2 = 0.3582 | 912.76 | 908 | 903.24 | 898.49 | 893.74 | 888.99 | 884.24
x2 = 0.4358 | 924.73 | 919.88 | 915.03 | 910.19 | 905.35 | 900.51 | 895.67
x2 = 0.5042 | 935.9 | 930.97 | 926.04 | 921.12 | 916.2 | 911.28 | 906.36
x2 = 0.5846 | 949.87 | 944.84 | 939.81 | 934.78 | 929.76 | 924.74 | 919.72
x2 = 0.6543 | 962.76 | 957.63 | 952.5 | 947.38 | 942.26 | 937.14 | 932.02
x2 = 0.7249 | 976.61 | 971.38 | 966.15 | 960.92 | 955.69 | 950.46 | 945.23
x2 = 0.7923 | 990.62 | 985.27 | 979.92 | 974.58 | 969.25 | 963.92 | 958.59
x2 = 0.8623 | 1006.05 | 1000.6 | 995.15 | 989.7 | 984.25 | 978.8 | 973.35
x2 = 0.9311 | 1022.14 | 1016.58 | 1011.03 | 1005.48 | 999.93 | 994.38 | 988.83

C1COCCO1 [1,4-dioxane] + Cc1ccccc1
mass density [kg/m3]
Conditions | 288.15 K | 293.15 K | 298.15 K | 303.15 K | 308.15 K | 313.15 K | 318.15 K
x1 = 0.0688 | 881.09 | 876.32 | 871.54 | 866.76 | 861.99 | 857.21 | 852.43
x1 = 0.1373 | 890.67 | 885.84 | 881 | 876.16 | 871.33 | 866.49 | 861.65
x1 = 0.2112 | 901.34 | 896.45 | 891.55 | 886.65 | 881.75 | 876.85 | 871.95
x1 = 0.2858 | 912.47 | 907.51 | 902.55 | 897.58 | 892.62 | 887.66 | 882.7
x1 = 0.3552 | 923.15 | 918.13 | 913.11 | 908.08 | 903.06 | 898.04 | 893.02
x1 = 0.4361 | 936.02 | 930.92 | 925.82 | 920.72 | 915.63 | 910.54 | 905.45
x1 = 0.5064 | 947.57 | 942.41 | 937.25 | 932.09 | 926.93 | 921.77 | 916.61
x1 = 0.5819 | 960.38 | 955.15 | 949.92 | 944.69 | 939.46 | 934.23 | 929
x1 = 0.6506 | 972.39 | 967.1 | 961.8 | 956.5 | 951.21 | 945.92 | 940.63
x1 = 0.7212 | 985.11 | 979.74 | 974.37 | 969.01 | 963.65 | 958.29 | 952.93
x1 = 0.7903 | 997.93 | 992.49 | 987.06 | 981.63 | 976.2 | 970.77 | 965.34
x1 = 0.864 | 1012.02 | 1006.51 | 1001 | 995.5 | 989.99 | 984.49 | 978.99
x1 = 0.9336 | 1025.74 | 1020.16 | 1014.58 | 1009.01 | 1003.44 | 997.87 | 992.3
x1 = 1 | 1039.23 | 1033.59 | 1027.95 | 1022.32 | 1016.68 | 1011.05 | 1005.42

Cc1cc(C)cc(C)c1 [1,3,5-trimethylbenzene] + C1COCCO1
mass density [kg/m3]
Conditions | 288.15 K | 293.15 K | 298.15 K | 303.15 K | 308.15 K | 313.15 K | 318.15 K
x2 = 0 | 869.28 | 865.37 | 861.45 | 857.54 | 853.63 | 849.71 | 845.8
x2 = 0.0696 | 876.28 | 872.24 | 868.2 | 864.16 | 860.13 | 856.1 | 852.07
x2 = 0.1408 | 883.83 | 879.67 | 875.52 | 871.37 | 867.22 | 863.07 | 858.92
x2 = 0.2098 | 891.62 | 887.36 | 883.1 | 878.84 | 874.59 | 870.34 | 866.09
x2 = 0.28 | 900.04 | 895.68 | 891.32 | 886.96 | 882.6 | 878.25 | 873.9
x2 = 0.3558 | 909.87 | 905.4 | 900.93 | 896.46 | 892 | 887.54 | 883.08
x2 = 0.4276 | 919.97 | 915.4 | 910.83 | 906.26 | 901.7 | 897.14 | 892.58
x2 = 0.5066 | 932.03 | 927.35 | 922.67 | 917.99 | 913.32 | 908.65 | 903.98
x2 = 0.5801 | 944.34 | 939.54 | 934.74 | 929.94 | 925.14 | 920.34 | 915.54
x2 = 0.6548 | 957.96 | 953.01 | 948.06 | 943.12 | 938.18 | 933.25 | 928.32
x2 = 0.7227 | 971.44 | 966.36 | 961.28 | 956.21 | 951.14 | 946.07 | 941
x2 = 0.7936 | 986.75 | 981.51 | 976.27 | 971.04 | 965.81 | 960.58 | 955.35
x2 = 0.8663 | 1003.78 | 998.39 | 993 | 987.61 | 982.23 | 976.85 | 971.47
x2 = 0.9319 | 1020.49 | 1014.96 | 1009.43 | 1003.91 | 998.39 | 992.87 | 987.35
